From patent US20210283087A1, “METHOD FOR TREATING AND RELIEVING MYOPIA” (China Medical University, priority 2014, published 2021)

Legend:
[1] = tested on: sclera or retina of guinea pig MFD eye; assay: Immunohistochemistry of guinea pig MFD eyes; type: in vivo
Method: Eyes were collected from atropine-treated and control animals, embedded in paraffin, and cut at a thickness of 20 μm; subsequently, the sections were placed on glass slides. Antigen retrieval was performed by boiling the slides in citrate buffer (pH 6.0); the sections were then stained with antibodies against IL-6, TNF-α, TGF-β, MMP2, c-Fos, NF-κB, and CHRM1 and 3. The EnVision System peroxidase kit (DAKO, Carpentaria, Calif., USA) was used to visualize immunoreactivity.
We observed a similar increase in inflammatory response in hamsters as we did in a guinea pig model of MFD.

[2] = tested on: monocular form deprivation (MFD) Syrian hamster; assay: Refractive power in monocular form deprivation (MFD) hamster model, streak retinoscope; type: in vivo, golden Syrian hamsters; conditions: for Refractive power, BL: left eye before MFD / Refractive power, BR: right eye before MFD: baseline; for Refractive power, FL: left eye after MFD / Refractive power, FR: right eye after MFD (occluded eye): 21 days; for Refractive error FR-BR: MFD right eye; for Refractive error FL-BL: non-MFD left eye
Method: (§1) In this study, a total of 160 golden Syrian hamsters aged 3 weeks, weighing 80 to 90 g, and 20 albino guinea pigs, aged 2 to 3 weeks, were used for experiments. All animals were kept in a 12-hour light/dark cycle. All procedures were approved by the Institutional Animal Care and Use Committee of China Medical University and were conducted in accordance with the guidelines of the Use of Animals in Ophthalmic and Vision Research. Hamsters were raised with a right eyelid fusion for 21 days. Myopia was induced in the guinea pigs by covering the right eye with a cloth attached to the skin at a distance of at least 1 cm from the eye. MFD was induced in the right eye (with the left eye serving as a control) of animals randomly assigned to treatment or control groups (n=10 animals each) receiving daily applications of drug or phosphate-buffered saline (PBS), respectively, to both eyes.
The RE (i.e., spherical-component RE, which is defined as the mean RE in horizontal and vertical meridians) was measured using a hand-held streak retinoscope. Animals were anesthetized with 10% ether in O2. Ocular refraction was evaluated at the start and end of the experiment. At the end of the study, animals were sacrificed through CO2 asphyxiation according to the guidelines of the Public Health Service, Office of Laboratory Animal Welfare, National Institutes of Health, and American Association of Veterinary Medicine. Eyes were enucleated using a razor blade on an ice plate under a surgical microscope (Topcon, Tokyo, Japan) by cutting perpendicularly to the anterior-posterior axis approximately 1 mm posterior to the ora serrata. The iris and ciliary body of the anterior segment of the eye were separated. Posterior sclera was excised using a 7-mm-diameter trephine. The axial lengths were determined through A-scan ultrasonography (PacScan 300 Plus, NY, USA). The average of 10 unique measurements was used.

[3] = tested on: primary sclera fibroblast; assay: Immunofluorescence of MMP2 and COL1 in primary scleral fibroblasts; type: cell-based, rat; conditions: 100 μM atropine for 24 hours
Method: Primary sclera fibroblast cells plating on cover slides were washed with Tris-buffered saline (TBS), and subsequently fixed with 4% paraformaldehyde and washed twice with TBS before blocking with 1% BSA and 0.1% Triton X-100 for 1 hour. The cells were incubated with anti-MMP2 or anti-COL1 for 1 hour before being washed three times with TBS and subsequently incubated with an appropriate secondary antibody and a 4′,6-diamidino-2-phenylindole (DAPI) DNA stain. After being washed three times with TBS, the cells were imaged using fluorescence microscopy. All experiments were performed at least in triplicate.

[4] = tested on: sclera and retina of hamster eyes; assay: Immunohistochemistry of hamster eyes (sclera, retina); type: in vivo
Method: Antigen retrieval was performed by boiling the slides in citrate buffer (pH 6.0); the sections were then stained with antibodies against IL-6, TNF-α, TGF-β, MMP2, c-Fos, NF-κB, and CHRM1 and 3. The EnVision System peroxidase kit (DAKO, Carpentaria, Calif., USA) was used to visualize immunoreactivity.

[5] = tested on: guinea pig with MFD; assay: Refractive power and axial length in guinea pig MFD model; type: in vivo, albino guinea pigs; conditions: MFD + 1% atropine; Day 21
Method: as §1
The RE (i.e., spherical-component RE, which is defined as the mean RE in horizontal and vertical meridians) was measured using a hand-held streak retinoscope. Animals were anesthetized with 10% ether in O2. Ocular refraction was evaluated at the start and end of the experiment. […] The axial lengths were determined through A-scan ultrasonography (PacScan 300 Plus, NY, USA). […]

[6] = tested on: Retinal cell (R28); assay: Gene expression by real-time PCR in LPS-treated R28 retinal cells; type: cell-based, rat
Method: R28 rat retinal epithelial cells were provided by Gail Seigel at the Ross Eye Institute (SUNY, Buffalo, N.Y., USA). The cells were cultured in Dulbecco's modified Eagle's medium (DMEM) with 10% fetal bovine serum (FBS) at 37° C. and 5% CO2, with medium replacement every 3 days to 4 days. Sclera were placed in a 60-mm culture dish in DMEM supplemented with 10% FBS to isolate primary scleral fibroblasts; those from fewer than three passages were used in experiments. […] Cell lysates were collected for quantitative (q)PCR to determine gene expression levels.
Total RNA was extracted using the RNeasy MiniKit (Qiagen, Valencia, Calif., USA), and 5 μg of RNA was reverse-transcribed to cDNA by using the Superscript First Strand Synthesis system (Invitrogen, Carlsbad, Calif., USA). Primers and probes used for qPCR were selected from the Universal Probes Library (Roche, West Sussex, UK). Transcript levels were normalized to those of glyceraldehyde 3-phosphate dehydrogenase in each sample.

[7] = Atropine 0.125%, listed as atropine
[8] = Atropine 0.5%, listed as atropine
[9] = Atropine 1%, listed as atropine
[10] = R28, 100 ng/ml LPS and 100 μM atropine for 4 hours

## CN1[C@@H]2CC[C@H]1C[C@@H](OC(=O)C(CO)c1ccccc1)C2 (stereo partly drawn) [Atropine, atropine]
[1]; atropine
  MFD downregulation of IL-10 level: suppressed
[1]; atropine compared to PBS
  COL1 expression in sclera or retina of the MFD eye: increased
  MMP2, TGF-β, and c-Fos expression in sclera or retina of the MFD eye: reduced
[2]; Atropine 0.125% group
  Refractive power, BL: left eye before MFD: 11.85 ± 0.18 D
  Refractive power, BR: right eye before MFD: 11.9 ± 0.07 D
[2]; Atropine 0.125%
  Refractive power, FL: left eye after MFD: 8.32 ± 0.16 D
  Refractive power, FR: right eye after MFD (occluded eye): 6.45 ± 0.1 D
  Refractive error FR-BR: −5.45 ± 0.07 D
  Refractive error FL-BL: −3.53 ± 0.28 D
[2]; [7]
  Refractive power, FL: left eye after MFD: 8.32±0.16 D
  Refractive power, FR: right eye after MFD (occluded eye): 6.45±0.1 D
[2]; Atropine 0.5% group
  Refractive power, BL: left eye before MFD: 11.69 ± 0.13 D
  Refractive power, BR: right eye before MFD: 11.61 ± 0.1 D
[2]; Atropine 0.5%
  Refractive power, FL: left eye after MFD: 8.58 ± 0.12 D
  Refractive power, FR: right eye after MFD (occluded eye): 6.72 ± 0.11 D
  Refractive error FR-BR: −4.89 ± 0.18 D
  Refractive error FL-BL: −3.11 ± 0.19 D
[2]; [8]
  Refractive power, FL: left eye after MFD: 8.58±0.12 D
  Refractive power, FR: right eye after MFD (occluded eye): 6.72±0.11 D
[2]; Atropine 1% group
  Refractive power, BL: left eye before MFD: 11.85 ± 0.18 D
  Refractive power, BR: right eye before MFD: 11.79 ± 0.15 D
[2]; Atropine 1%
  Refractive power, FL: left eye after MFD: 10.79 ± 0.16 D
  Refractive power, FR: right eye after MFD (occluded eye): 7.06 ± 0.29 D
  Refractive error FR-BR: −4.74 ± 0.39 D
  Refractive error FL-BL: −1.06 ± 0.22 D
[2]; [9]
  Refractive power, FL: left eye after MFD: 10.79±0.16 D
  Refractive power, FR: right eye after MFD (occluded eye): 7.06±0.29 D
[3]
  COL1 expression: increased
  Expression levels of MMP2: inhibited
[4]; 1% atropine
  IL-6 and TNF-α immunoreactivity in the retina of MFD eyes: reduced
  c-Fos and NF-κB expression in the retinas of MFD eyes: suppressed
[4]; 1% atropine compared with PBS
  COL1 expression in the sclera of the MFD eye: increased
  MMP2 expression in the sclera of the MFD eye: decreased
[4]; atropine
  MFD upregulation of TGF-β level in retina and sclera: suppressed
[4]; atropine treatment
  IL-10 expression: elevated
[4]; atropine treatment compared with PBS-treated MFD eyes
  CHRM1 and CHRM 3 expression in MFD eyes: downregulated
[5]
  Refractive power, left eye (control eye): −1.50±0.82 D
  Refractive power, right eye (myopic eye): −6.79±1.00 D
[6]
  Chrm5 gene expression level: 0.78 ± 0.24
[6]; [10]
  Chrm 1 gene expression level: 0.65 ± 0.16
  Chrm 2 gene expression level: 1.96 ± 0.2
  Chrm 3 gene expression level: 0.78 ± 0.11
  Chrm 4 gene expression level: 0.81 ± 0.23
  Fos gene expression level: 0.76 ± 0.17
  IL1b gene expression level: 0.17 ± 0.24
  IL10 gene expression level: 1.81 ± 0.15
  IL-6 gene expression level: 0.86 ± 0.19
  MMP2 gene expression level: 0.75 ± 0.16
  NFkB gene expression level: 0.85 ± 0.08
  Tgfb1 gene expression level: 0.82 ± 0.11
  Tnfa gene expression level: 0.84 ± 0.24
